The values below come from BindingDB's records for doi:10.1016/j.bioorg.2017.05.009 (Kinnaird College for Women, 2017).

For this test, the target named is Alpha-glucosidase MAL32 (Saccharomyces cerevisiae, UniProt P38158). The test is described as follows: α-Glucosidase Inhibition Assay. Conditions: pH 6.8; 37 °C. As to the method: For α-glucosidase inhibition assay, α-glucosidase enzyme (Cat No. 5003-1KU Type I; isolated from Saccharomyces cereviciae) was used. Acarbose was the reference standard and Pierre's methodology was employed [Pierre et al., J. Clin. Chem., 24:208-211]. First absorbance was taken at 400 nm after the 10 min incubation of a mixture of phosphate buffer ([…], pH 6.8), test compound ([…], 0.5 mM) and enzyme ([…], 0.0234 units, Sigma Inc.). Later, […] of p-nitrophenyl-α-D-glucopyranoside (0.5 mM, code No. N1377 from Sigma Inc) was added. After 30 min incubation at 37 °C, the absorbance was retaken at 400 nm.
Alpha-glucosidase MAL32, sequence (P38158 whole entry): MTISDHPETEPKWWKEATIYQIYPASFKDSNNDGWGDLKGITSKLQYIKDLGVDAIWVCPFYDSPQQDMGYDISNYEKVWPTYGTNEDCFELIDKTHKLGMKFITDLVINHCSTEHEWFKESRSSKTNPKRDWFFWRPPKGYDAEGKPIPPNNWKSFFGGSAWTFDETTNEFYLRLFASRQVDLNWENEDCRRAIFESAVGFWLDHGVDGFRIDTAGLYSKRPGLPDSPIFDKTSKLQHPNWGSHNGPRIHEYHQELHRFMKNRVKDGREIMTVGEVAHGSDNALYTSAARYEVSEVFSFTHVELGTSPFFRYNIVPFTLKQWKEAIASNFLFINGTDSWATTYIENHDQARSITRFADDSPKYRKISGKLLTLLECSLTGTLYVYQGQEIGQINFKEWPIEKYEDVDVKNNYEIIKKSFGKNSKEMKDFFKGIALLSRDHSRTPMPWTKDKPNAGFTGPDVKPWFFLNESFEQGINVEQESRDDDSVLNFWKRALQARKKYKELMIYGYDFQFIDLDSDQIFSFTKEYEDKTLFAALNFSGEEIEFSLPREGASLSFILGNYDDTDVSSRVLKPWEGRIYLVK
For orientation: IC50 means the point on the concentration scale where inhibition reaches its midpoint. Low values mean greater potency, high ones weaker potency. In the case of `COc1ccc(-n2c(-c3cn(-c4ccccc4)nc3C3=CC4C=CC=CC4OC3=O)nc(-c3ccccc3)c2-c2ccccc2)cc1` (stereo not given) [3-(4-(1-(4-Methoxyphenyl)-4,5-diphenyl-1H-imidazol-2-yl)-1-phenyl-1H-pyrazol-3-yl)-4a,8a-dihydro-2H-chromen-2-one (3c)], the concentration for half-maximal inhibition (IC50) was determined as 25.4 µM. In turn, `Cc1cc(C)cc(-n2c(-c3cn(-c4ccccc4)nc3C3=CC4C=CC=CC4OC3=O)nc(-c3ccccc3)c2-c2ccccc2)c1` (stereo not given) [3-(4-(1-(3,5-Dimethylphenyl)-4,5-diphenyl-1H-imidazol-2-yl)-1-phenyl-1H-pyrazol-3-yl)-4a,8a-dihydro-2H-chromen-2-one (3d)] yielded an IC50 of 46.4 µM. Next, `CCCn1c(-c2cn(-c3ccccc3)nc2C2=CC3C=CC=CC3OC2=O)nc(-c2ccccc2)c1-c1ccccc1` (stereo not given) [3-(4-(4,5-Diphenyl-1-propyl-1H-imidazol-2-yl)-1-phenyl-1Hpyrazol-3-yl)-4a,8a-dihydro-2H-chromen-2-one (3e)]: 44.8 µM; `O=C1OC2C=CC=CC2C=C1c1nn(-c2ccccc2)cc1-c1nc(-c2ccccc2)c(-c2ccccc2)n1-c1ccc(Cl)cc1` (stereo not given) [3-(4-(1-(4-Chlorophenyl)-4,5-diphenyl-1H-imidazol-2-yl)-1-phenyl-1H-pyrazol-3-yl)-4a,8a-dihydro-2H-chromen-2-one (3a)]: 12.7 µM. Next, `COc1ccc(-n2c(-c3cn(-c4ccccc4)nc3-c3cc4cc(Br)ccc4oc3=O)nc(-c3ccccc3)c2-c2ccccc2)cc1` [6-Bromo-3-(4-(1-(4-methoxyphenyl)-4,5-diphenyl-1Himidazol-2-yl)-1-phenyl-1H-pyrazol-3-yl)-2H-chromen-2-one (3h)]: 9.27 µM; `Cc1ccc(-n2c(-c3cn(-c4ccccc4)nc3-c3cc4cc(Br)ccc4oc3=O)nc(-c3ccccc3)c2-c2ccccc2)cc1` [6-Bromo-3-(4-(4,5-diphenyl-1-(p-tolyl)-1H-imidazol-2-yl)-1-phenyl-1H-pyrazol-3-yl)-2H-chromen-2-one (3i)]: 5.83 µM; `O=C1OC2C=CC=CC2C=C1c1nn(-c2ccccc2)cc1-c1nc(-c2ccccc2)c(-c2ccccc2)n1-c1ccc(Br)cc1` (stereo not given) [3-(4-(1-(4-Bromophenyl)-4,5-diphenyl-1H-imidazol-2-yl)-1-phenyl-1H-pyrazol-3-yl)-4a,8a-dihydro-2H-chromen-2-one (3b)]: 34.3 µM. Next, `Cc1cc(C)cc(-n2c(-c3cn(-c4ccccc4)nc3C3=CC4C=C(Br)C=CC4OC3=O)nc(-c3ccccc3)c2-c2ccccc2)c1` (stereo not given) [6-Bromo-3-(4-(1-(3,5-dimethylphenyl)-4,5-diphenyl-1Himidazol-2-yl)-1-phenyl-1H-pyrazol-3-yl)-4a,8a-dihydro-2Hchromen-2-one (3g)]: 5.64 µM. Consider `O=c1oc2ccc(Br)cc2cc1-c1nn(-c2ccccc2)cc1-c1nc(-c2ccccc2)c(-c2ccccc2)n1-c1ccc(Cl)cc1` [6-Bromo-3-(4-(1-(4-chlorophenyl)-4,5-diphenyl-1H-imidazol-2-yl)-1-phenyl-1H-pyrazol-3-yl)-2H-chromen-2-one (3f)], for which 2.53 µM corresponded to half-maximal inhibition (IC50). As for `O=c1oc2ccc(Br)cc2cc1-c1nn(-c2ccccc2)cc1-c1nc(-c2ccccc2)c(-c2ccccc2)n1-c1ccc(Br)cc1` [6-Bromo-3-(4-(1-(4-bromophenyl)-4,5-diphenyl-1H-imidazol-2-yl)-1-phenyl-1H-pyrazol-3-yl)-2H-chromen-2-one (3j)], the figure is 5.21 µM.
